# Earlier results in US20100267661A1, “BETA GLUCANS AND METHODS OF USE THEREOF” (ImmuDyne, Inc., priority 2009, published 2010).
# Conditions: rats
substance,measurement,value
"(1,3)-β-D-glucan [particulate yeast (1,3)-β-D-glucan]",Adverse or toxic effects,no adverse or toxic effects
